Where two headings read alike, the source gives them in different places.
How the values were obtained:
[1] = test system: S. cerevisiae strain AD3Δ ScErg11 I471T expressing ScLDM6×His I471T; assay: Broth microdilution drug susceptibility assay (MIC80), strain AD3Δ ScErg11 I471T; assay type: cell-based, Saccharomyces cerevisiae; details: for MIC80: Saccharomyces cerevisiae, 48 h, 30 °C, pH 6.8, mean (± SEM), n = 3; for MIC80 / MIC80/Relative Amount of ScLDM6×His / fold-resistance based on the relative amount of recombinant enzyme compared with strain AD3Δ: strain I471T; for increased susceptibility compared with AD3Δ: strain AD3Δ ScErg11 I471T, not corrected for expression; for MIC80/Relative Amount of ScLDM6×His / fold-resistance based on the relative amount of recombinant enzyme compared with strain AD3Δ: relative expression 0.51
Description: (§1) The native ScERG11 gene in yeast cells containing mutant ScERG11-6×His constructs in the PDR5 locus was disrupted by homologous recombination with a cassette encoding the His1 selection marker and sequences homologous with the regions bordering the endogenous ScERG11 ORF to create strains AD3Δ ScErg11 Y140H, AD3Δ ScErg11 I471T and AD3Δ ScErg11Y140H I471T [43]. Transformants were selected on SD-His agar plates incubated at 30 °C for 48–72 h. Genomic DNA was extracted, and DNA sequencing as above was used to confirm deletion of the native ERG11. Strain AD3Δ ScErg11 (denoted as AD3Δ), which overexpresses wild-type ScLDM6×His from the PDR5 locus and has the native ScERG11 gene disrupted, was used as a control strain [43].
(§2) Azole susceptibility was measured as the mean drug concentration required to inhibit 80% of yeast growth (MIC80) compared to a non-drug control, using a standard broth microdilution assay. Serial dilutions of short- (FLC and VCZ), medium- (VT-1161), and long-tailed (ITC and PCZ) azole drugs, and the control drugs micafungin (MCF) and amphotericin B (AMB), were prepared in a 96-well microtiter plate in complete synthetic media lacking uracil, buffered to pH 6.8 [34]. Control and test cells were seeded at an optical density of 600 nm (OD600) of 0.005 (~1.5 × 10^4 colony forming units). After incubation for 48 h at 30 °C with constant agitation (200 rpm), the OD600 nm of each well was measured using a Synergy 2 multi-mode plate reader (BioTek Instruments, Winooski, VT, USA). The experiment was repeated three times (a total of nine measurements for the response of each strain to each drug). GraphPad Prism 5.0 software was used for statistical analysis, using a one-way analysis of variance with a Bonferroni post-hoc test. The statistical significance of comparisons was accepted when p < 0.05.

[2] = molecular target: T1, wild-type (AD3Δ) ScLDM6×His (Saccharomyces cerevisiae, UniProt P10614); assay: Type II azole binding to affinity purified wild-type ScLDM6×His; details: for ΔAmax: type II binding
T1 construct: recombinant full-length C-terminal hexahistidine-tagged wild-type Saccharomyces cerevisiae LDM (ScLDM6×His); 6×His (hexahistidine) (C); made in house; host or cells: Saccharomyces cerevisiae strain AD3Δ ScErg11 (overexpression from the PDR5 locus, native ERG11 disrupted)
T1 sequence (P10614 whole entry, stated change not applied): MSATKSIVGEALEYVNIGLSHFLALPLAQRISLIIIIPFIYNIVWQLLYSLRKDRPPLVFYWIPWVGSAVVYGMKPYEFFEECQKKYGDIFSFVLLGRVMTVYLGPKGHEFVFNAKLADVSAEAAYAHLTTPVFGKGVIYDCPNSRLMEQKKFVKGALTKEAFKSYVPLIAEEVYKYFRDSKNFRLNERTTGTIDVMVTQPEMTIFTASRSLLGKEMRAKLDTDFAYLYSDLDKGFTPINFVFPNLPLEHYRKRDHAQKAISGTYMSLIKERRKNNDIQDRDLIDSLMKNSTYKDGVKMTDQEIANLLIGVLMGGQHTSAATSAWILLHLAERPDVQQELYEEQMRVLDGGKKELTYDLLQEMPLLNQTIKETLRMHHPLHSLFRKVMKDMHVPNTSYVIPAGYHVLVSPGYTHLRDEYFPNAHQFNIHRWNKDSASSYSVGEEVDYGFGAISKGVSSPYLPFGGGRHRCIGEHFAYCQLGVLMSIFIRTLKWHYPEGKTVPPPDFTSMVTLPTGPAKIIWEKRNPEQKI
Description: (§3) Protein purification was carried out using established methods. In brief, a 12 L culture for each control and test strain was grown overnight in 1 L volumes of YPD medium (1% [w/v] yeast extract [BD Difco], 2% [w/v] peptone [BD Difco], and 2% [w/v] D-glucose) in baffled 3 L flasks at 30 °C, with constant agitation (140 rpm). Cells harvested by centrifugation were broken by bead-beating and crude membrane fractions obtained by differential centrifugation, as previously described. The protein concentration of the crude membranes was estimated using the Lowry assay, with bovine serum albumin (Thermo Fisher) used as the protein standard. The crude membranes (1 g at 2.5 mg/mL) were detergent-solubilized using 10× critical micelle concentration (CMC) n-decyl-β-D-maltoside (DM) (Anatrace, Maumee, OH, USA) in buffer containing 10% (w/v) glycerol, 250 mM NaCl, 20 mM Tris pH 7.5, 0.5 mM phenylmethanesulfonyl fluoride (PMSF), and 1 EDTA-free protease inhibitor pill (Roche, Basel, Switzerland) per 300 mL. When the protein was to be used to assess in vitro binding affinity for the test azoles, detergent solubilized ScLDM6×His recovered after centrifugation was affinity purified using a nickel-nitrilotriacetic acid (Ni-NTA)-agarose matrix (Qiagen). The bound ScLDM6×His was eluted from the matrix using an affinity purification buffer containing 50 mM L-histidine. The L-histidine was removed by washing the enzyme through centrifugal filtration, using a 50 kDa molecular-weight cut-off Amicon Ultra-4 filter (Sigma, Auckland, New Zealand).
(§4) The concentration of functional ScLDM6×His purified by the nickel affinity method was quantitated using the standard carbon monoxide (CO) binding method. Type II drug binding assays that measure absorbance changes due to ligand interactions with ScLDM6×His were performed for VCZ and ITC, using an established protocol. The peak429nm-trough410nm difference spectra plotted against azole concentration were used to generate drug binding curves. All calculations were performed using GraphPad Prism 5 Software.

[3] = test system: S. cerevisiae strain AD3Δ ScErg11 Y140H I471T expressing ScLDM6×His Y140H I471T; assay: Broth microdilution drug susceptibility assay (MIC80), strain AD3Δ ScErg11 Y140H I471T; assay type: cell-based, Saccharomyces cerevisiae; details: for MIC: Saccharomyces cerevisiae, strain Y140H + I471T, 48 h, 30 °C, pH 6.8, mean (± SEM), n = 3; for MIC80/Relative Amount of ScLDM6×His / fold-resistance based on the relative amount of recombinant enzyme compared with strain AD3Δ: strain Y140H+I471T, relative expression 0.41
Description: as §1, §2

[4] = test system: C. albicans strain SC5314; assay: Agarose disk diffusion assay, control strain SC5314; assay type: cell-based, Candida albicans; details: for effect of Cdr1p inhibitor RC21v3 on azole susceptibility: SC5314, RC21v3 at 6 µM in the assay medium
Description: Agarose diffusion assays were carried out as described previously using the Darlington strain of C. albicans (Pfizer Ltd., Sandwich, UK) and the control C. albicans database strain SC5314, which is not resistant to azoles. The Cdr1p-specific inhibitor RC21v3 and the CaMdr1p-specific inhibitor MCC1189 (MicroCombiChem, Wiesbaden, Germany), included in the assay medium at 6 µM, were used to investigate the contribution of efflux pumps to azole resistance in the Darlington strain [49, 50, 51].

ScLDM6×His I471T = molecular target: T2, ScLDM6×His I471T (Saccharomyces cerevisiae, UniProt P10614, I471T); assay: Type II azole binding to affinity purified ScLDM6×His I471T; details: for ΔAmax: type II binding
T2 construct: structurally aligned mutations in recombinant hexahistidine-tagged full-length Saccharomyces cerevisiae LDM6×His (ScLDM6×His); 6×His (hexahistidine) (C); made in house; host or cells: Saccharomyces cerevisiae strain AD3Δ ScErg11 I471T (overexpression from the PDR5 locus, native ERG11 disrupted)
T2 sequence (P10614 whole entry I471T): as the sequence (P10614 whole entry, stated change not applied) above, with I471T counted along it
Description: as §3, §4

[5] = wild-type (AD3Δ) ScLDM6×His, 2 µM enzyme, (± SEM), μM, read-out: [Azole]0.5
[6] = wild-type (AD3Δ) ScLDM6×His, (± SEM)
[7] = wild-type ScLDM6×His, supplement, 'in the 0.5 μM range'
[8] = wild-type enzyme, in the presence of 2 µM enzyme, read-out: IC50 from type II binding curves
[9] = I471T mutant ScLDM6×His, supplement, 'in the 0.5 μM range'
[10] = I471T mutant enzyme, in the presence of 2 µM enzyme, read-out: IC50 from type II binding curves
[11] = ScLDM6×His I471T, 2 µM enzyme, (± SEM), μM, read-out: [Azole]0.5

Structure (SMILES)	MIC80 [1] [µM]	increased susceptibility compared with AD3Δ [1] [fold]	MIC80/Relative Amount of ScLDM6×His [1] [µM]	fold-resistance based on the relative amount of recombinant enzyme compared with strain AD3Δ [1] [×]	IC50 [2, 5] [µM]	ΔAmax [2, 6]	Hill number [2, 6]	Kd [2, 6] [nM]	Kd [2, 7] [nM]	IC50 [2, 8] [µM]	MIC [3] [µM]	MIC80/Relative Amount of ScLDM6×His [3] [µM]	fold-resistance based on the relative amount of recombinant enzyme compared with strain AD3Δ [3] [×]	effect of Cdr1p inhibitor RC21v3 on azole susceptibility [4]	Kd (ScLDM6×His I471T; [9]) [nM]	IC50 (ScLDM6×His I471T; [10]) [µM]	IC50 (ScLDM6×His I471T; [11]) [µM]	ΔAmax (ScLDM6×His I471T; ScLDM6×His I471T, (± SEM))	Hill number (ScLDM6×His I471T; ScLDM6×His I471T, (± SEM))	Kd (ScLDM6×His I471T; ScLDM6×His I471T, (± SEM)) [nM]	also measured
CCC(C)n1ncn(-c2ccc(N3CCN(c4ccc(OCC5COC(Cn6cncn6)(c6ccc(Cl)cc6Cl)O5)cc4)CC3)cc2)c1=O (stereo not shown) [ITC, itraconazole]	0.102	1.4	0.2	1.4	0.6	0.08 (0.006)	1.61 (0.22)	430	~500	0.6 to 0.8	0.108	0.263	1.8	increased susceptibility	~500	0.6 to 0.8	0.79	0.06 (0.001)	1.55 (0.19)	700	resistance conferred, relative expression taken into account ([3]; ScLDM6×His Y140H I471T (0.41 of wild-type) vs AD3Δ): 1.8 fold; effect of Mdr1 inhibitor MCC1189 on azole susceptibility [4]: no effect on susceptibility
C[C@@H](c1ncncc1F)[C@](O)(Cn1cncn1)c1ccc(F)cc1F [VCZ, voriconazole]	0.074	1.2	0.145	1.6	0.78	0.10 (0.004)	1.85 (0.23)	620	~500	0.6 to 0.8	0.25	0.609	6.5	did not alter the susceptibility	~500	0.6 to 0.8	0.75	0.07 (0.003)	1.88 (0.23)	580	MIC80 higher than AD3Δ ScErg11 cells ([3]; strain AD3Δ ScErg11 Y140H I471T, not corrected for expression, p < 0.001): approximately 3 fold; MIC80 higher than cells overexpressing ScLDM6×His Y140H ([3]; strain AD3Δ ScErg11 Y140H I471T, p < 0.001): 1.5 fold; effect of Mdr1 inhibitor MCC1189 on azole susceptibility ([4]; SC5314, MCC1189 at 6 µM in the assay medium): did not alter the susceptibility; agarose diffusion susceptibility ([4]; SC5314, no efflux pump inhibitor): susceptible

Source: publication PMC8621857, “Structural Insights into the Azole Resistance of the Candida albicans Darlington Strain Using Saccharomyces cerevisiae Lanosterol 14α-Demethylase as a Surrogate” (Journal of Fungi, 2021)
